In brackets after ≈: the same amount, converted by molar mass. Several values for one entry are separate records, joined by “and”; a condition that tells them apart may be missing. Identical values can stand only once.
Tests used:
[1] = tested on: Staphylococcus epidermidis EPI2; assay: agar-dilution MIC; format: cell-based; conditions: two values = two experiments, 2 median of five, 19 median of three
[2] = tested on: Streptococcus pyogenes C203; assay: agar-dilution MIC; format: cell-based; conditions: two values = two experiments, 2 median of five, 19 median of three
[3] = tested on: Staphylococcus aureus X400; assay: agar-dilution MIC; format: cell-based; conditions: Staphylococcus aureus X400, methicillin-resistant strain; two values = two experiments; 2 median of five, 19 median of three
Description: (§1) In Table VII activity is measured by the minimal inhibitory concentration (MIC), i.e. the lowest concentration of compound at which growth of the microorganism is inhibited by the test compound.

[4] = tested on: Staphylococcus aureus X1.1; assay: agar-dilution MIC; format: cell-based; conditions: two values = two experiments, 2 median of five, 19 median of three experiments
Description: as §1

toxicity test, LD50 = conditions: mouse, in vivo, iv; administered intravenously; read-out: LD50 (mg/kg) in Mice
[5] = tested on: Streptococcus Group D 9960; assay: agar-dilution MIC; format: cell-based; conditions: two values = two experiments, 2 median of five, 19 median of three
Description: as §1

Staphylococcus aureus = assay: in vivo experimental bacterial infection, ED50; conditions: mice, two doses subcutaneously; two values = two experiments
[6] = tested on: Streptococcus Group D X66; assay: agar-dilution MIC; format: cell-based; conditions: two values = two experiments, 2 median of five, 19 median of three
Description: as §1

[7] = tested on: Staphylococcus aureus V41; assay: agar-dilution MIC; format: cell-based; conditions: Staphylococcus aureus V41, penicillin-resistant strain; two values = two experiments; 2 median of five, 19 median of three
Description: as §1

[8] = tested on: Staphylococcus epidermidis EPI1; format: cell-based; conditions: two values = two experiments, 2 median of five, 19 median of three
Streptococcus pyogenes = assay: in vivo experimental bacterial infection, ED50; conditions: mice; for ED50 Values Streptococcus pyogenes Oral: two doses orally; for ED50 Values Streptococcus pyogenes Subcutaneous: two doses subcutaneously, two values = two experiments
[9] = tested on: Streptococcus pneumoniae Park I; format: cell-based; conditions: two values = two experiments, 2 median of five, 19 median of three
Description: as §1

With CCCCCCCCCCCC(=O)Nc1cc(Cl)cc(C(=O)N[C@@H](Cc2c[nH]c3ccccc23)C(=O)N[C@H](CC(N)=O)C(=O)N[C@@H](CC(=O)O)C(=O)N[C@@H]2C(=O)NCC(=O)N[C@@H](CCCN)C(=O)N[C@@H](CC(=O)O)C(=O)N[C@H](C)C(=O)N[C@@H](CC(=O)O)C(=O)NCC(=O)N[C@H](CO)C(=O)N[C@@H]([C@H](C)CC(=O)O)C(=O)N[C@@H](CC(=O)c3ccccc3N)C(=O)O[C@@H]2C)c1Cl [Compound 7] the MIC [1] was 2 µg/mL (≈ 1.09 µM), the MIC [2] was 1 µg/mL (≈ 0.544 µM) and the MIC [3] was 2 µg/mL (≈ 1.09 µM). The MIC [4] was 0.5 µg/mL (≈ 0.272 µM), the LD50 (toxicity test, LD50) was 200 mg/kg and the MIC [5] was 2 µg/mL (≈ 1.09 µM). For the same compound, the “ED50 Values Staphylococcus aureus Subcutaneous” value (Staphylococcus aureus) was 19 mg/kg × 2, the MIC [6] was 2 µg/mL (≈ 1.09 µM) and the MIC [7] was 1 µg/mL (≈ 0.544 µM). The MIC [8] was 2 µg/mL (≈ 1.09 µM), the “ED50 Values Streptococcus pyogenes Oral” value (Streptococcus pyogenes) was greater than 200 mg/kg × 2 and the “ED50 Values Streptococcus pyogenes Subcutaneous” value (Streptococcus pyogenes) was 0.23 mg/kg × 2. For the same compound, the MIC [9] was 0.125 µg/mL (≈ 0.0681 µM).
CCCCCCCCCCCC(=O)NCCCCC(=O)N[C@@H](Cc1c[nH]c2ccccc12)C(=O)N[C@H](CC(N)=O)C(=O)N[C@@H](CC(=O)O)C(=O)N[C@@H]1C(=O)NCC(=O)N[C@@H](CCCN)C(=O)N[C@@H](CC(=O)O)C(=O)N[C@H](C)C(=O)N[C@@H](CC(=O)O)C(=O)NCC(=O)N[C@H](CO)C(=O)N[C@@H]([C@H](C)CC(=O)O)C(=O)N[C@@H](CC(=O)c2ccccc2N)C(=O)O[C@@H]1C [Compound 2] gave an MIC [1] of 2 µg/mL (≈ 1.14 µM), an MIC [2] of 1 µg/mL (≈ 0.572 µM) and an MIC [3] of 4 µg/mL (≈ 2.29 µM). It also gave an MIC [4] of 4 µg/mL (≈ 2.29 µM), an LD50 (toxicity test, LD50) greater than 600 mg/kg and an MIC [5] of 8 µg/mL (≈ 4.58 µM). The “ED50 Values Staphylococcus aureus Subcutaneous” value (Staphylococcus aureus) was 0.65 mg/kg × 2 and 0.93 mg/kg × 2, the MIC [6] was 32 µg/mL (≈ 18.3 µM) and the MIC [7] was 4 µg/mL (≈ 2.29 µM). The MIC [8] was 4 µg/mL (≈ 2.29 µM), the “ED50 Values Streptococcus pyogenes Oral” value (Streptococcus pyogenes) was 117 mg/kg × 2 and the MIC [9] was 4 µg/mL (≈ 2.29 µM).
CCCCCCCCCCCC(=O)N[C@@H](Cc1c[nH]c2ccccc12)C(=O)N[C@@H](Cc1c[nH]c2ccccc12)C(=O)N[C@H](CC(N)=O)C(=O)N[C@@H](CC(=O)O)C(=O)N[C@@H]1C(=O)NCC(=O)N[C@@H](CCCN)C(=O)N[C@@H](CC(=O)O)C(=O)N[C@H](C)C(=O)N[C@@H](CC(=O)O)C(=O)NCC(=O)N[C@H](CO)C(=O)N[C@@H]([C@H](C)CC(=O)O)C(=O)N[C@@H](CC(=O)c2ccccc2N)C(=O)O[C@@H]1C [Compound 24] showed an MIC [1] of 4 µg/mL (≈ 2.18 µM), an MIC [2] of 2 µg/mL (≈ 1.09 µM) and an MIC [3] of 4 µg/mL (≈ 2.18 µM). The MIC [4] was 1 µg/mL (≈ 0.545 µM), the LD50 (toxicity test, LD50) was 450 mg/kg and the MIC [5] was 4 µg/mL (≈ 2.18 µM). The “ED50 Values Staphylococcus aureus Subcutaneous” value (Staphylococcus aureus) was 2.3 mg/kg × 2, the MIC [6] was 16 µg/mL (≈ 8.72 µM) and the MIC [7] was 2 µg/mL (≈ 1.09 µM). For the same compound, the MIC [8] was 4 µg/mL (≈ 2.18 µM), the “ED50 Values Streptococcus pyogenes Oral” value (Streptococcus pyogenes) was greater than 200 mg/kg × 2 and the MIC [9] was 1 µg/mL (≈ 0.545 µM).
Compound CCCCCCCCCCCC(=O)Nc1cccc(C(=O)N[C@@H](Cc2c[nH]c3ccccc23)C(=O)N[C@H](CC(N)=O)C(=O)N[C@@H](CC(=O)O)C(=O)N[C@@H]2C(=O)NCC(=O)N[C@@H](CCCN)C(=O)N[C@@H](CC(=O)O)C(=O)N[C@H](C)C(=O)N[C@@H](CC(=O)O)C(=O)NCC(=O)N[C@H](CO)C(=O)N[C@@H]([C@H](C)CC(=O)O)C(=O)N[C@@H](CC(=O)c3ccccc3N)C(=O)O[C@@H]2C)c1 [Compound 5] has an MIC [1] of 1 µg/mL (≈ 0.566 µM), an MIC [2] of 0.25 µg/mL (≈ 0.141 µM) and an MIC [3] of 1 µg/mL (≈ 0.566 µM). The MIC [4] was 0.5 µg/mL (≈ 0.283 µM), the LD50 (toxicity test, LD50) was 277 mg/kg and the MIC [5] was 1 µg/mL (≈ 0.566 µM). For the same compound, the “ED50 Values Staphylococcus aureus Subcutaneous” value (Staphylococcus aureus) was 1.67 mg/kg × 2, the MIC [6] was 4 µg/mL (≈ 2.26 µM) and the MIC [7] was 0.5 µg/mL (≈ 0.283 µM). For the same compound, the MIC [8] was 2 µg/mL (≈ 1.13 µM), the “ED50 Values Streptococcus pyogenes Oral” value (Streptococcus pyogenes) was greater than 200 mg/kg × 2 and the “ED50 Values Streptococcus pyogenes Subcutaneous” value (Streptococcus pyogenes) was > 0.25 mg/kg × 2 and 0.46 mg/kg × 2. It also gave an MIC [9] of 0.25 µg/mL (≈ 0.141 µM).
Work on CCCCCCCCCCCC(=O)N[C@@H](Cc1ccccc1)C(=O)N[C@@H](Cc1c[nH]c2ccccc12)C(=O)N[C@H](CC(N)=O)C(=O)N[C@@H](CC(=O)O)C(=O)N[C@@H]1C(=O)NCC(=O)N[C@@H](CCCN)C(=O)N[C@@H](CC(=O)O)C(=O)N[C@H](C)C(=O)N[C@@H](CC(=O)O)C(=O)NCC(=O)N[C@H](CO)C(=O)N[C@@H]([C@H](C)CC(=O)O)C(=O)N[C@@H](CC(=O)c2ccccc2N)C(=O)O[C@@H]1C [Compound 8] yielded an MIC [1] of 1 µg/mL (≈ 0.557 µM), an MIC [2] of 0.25 µg/mL (≈ 0.139 µM) and an MIC [3] of 0.5 µg/mL (≈ 0.278 µM). For the same compound, the MIC [4] was 0.25 µg/mL (≈ 0.139 µM), the LD50 (toxicity test, LD50) was 250 mg/kg and the MIC [5] was 0.25 µg/mL (≈ 0.139 µM). For the same compound, the “ED50 Values Staphylococcus aureus Subcutaneous” value (Staphylococcus aureus) was 2.35 mg/kg × 2, the MIC [6] was 1 µg/mL (≈ 0.557 µM) and the MIC [7] was 0.25 µg/mL (≈ 0.139 µM). For the same compound, the MIC [8] was 1 µg/mL (≈ 0.557 µM), the “ED50 Values Streptococcus pyogenes Oral” value (Streptococcus pyogenes) was 150 mg/kg × 2 and the “ED50 Values Streptococcus pyogenes Subcutaneous” value (Streptococcus pyogenes) was 0.32 mg/kg × 2. It also gave an MIC [9] of 0.125 µg/mL (≈ 0.0696 µM).
With CCCCCCCCCC(=O)N[C@@H](Cc1ccccc1)C(=O)N[C@@H](Cc1c[nH]c2ccccc12)C(=O)N[C@H](CC(N)=O)C(=O)N[C@@H](CC(=O)O)C(=O)N[C@@H]1C(=O)NCC(=O)N[C@@H](CCCN)C(=O)N[C@@H](CC(=O)O)C(=O)N[C@H](C)C(=O)N[C@@H](CC(=O)O)C(=O)NCC(=O)N[C@H](CO)C(=O)N[C@@H]([C@H](C)CC(=O)O)C(=O)N[C@@H](CC(=O)c2ccccc2N)C(=O)O[C@@H]1C [Compound 19, NTrp-[N-(n-Decanoyl)-L-phenylalanyl]-A-21978C Nucleus] the MIC [1] was 0.5 µg/mL (≈ 0.283 µM), the MIC [2] was 0.25 µg/mL (≈ 0.141 µM) and the MIC [3] was 1 µg/mL (≈ 0.566 µM). For the same compound, the MIC [4] was 0.5 µg/mL (≈ 0.283 µM), the LD50 (toxicity test, LD50) was 600 mg/kg and the MIC [5] was 2 µg/mL (≈ 1.13 µM). The “ED50 Values Staphylococcus aureus Subcutaneous” value (Staphylococcus aureus) was 0.7 mg/kg × 2 and 0.98 mg/kg × 2, the MIC [6] was 8 µg/mL (≈ 4.53 µM) and the MIC [7] was 0.5 µg/mL (≈ 0.283 µM). For the same compound, the MIC [8] was 1 µg/mL (≈ 0.566 µM), the “ED50 Values Streptococcus pyogenes Oral” value (Streptococcus pyogenes) was greater than 200 mg/kg × 2 and the “ED50 Values Streptococcus pyogenes Subcutaneous” value (Streptococcus pyogenes) was 0.39 mg/kg × 2. The MIC [9] was 0.75 µg/mL (≈ 0.424 µM).
Work on CCCCCCC(=O)NCCCCCCCCCCC(=O)N[C@@H](Cc1c[nH]c2ccccc12)C(=O)N[C@H](CC(N)=O)C(=O)N[C@@H](CC(=O)O)C(=O)N[C@@H]1C(=O)NCC(=O)N[C@@H](CCCN)C(=O)N[C@@H](CC(=O)O)C(=O)N[C@H](C)C(=O)N[C@@H](CC(=O)O)C(=O)NCC(=O)N[C@H](CO)C(=O)N[C@@H]([C@H](C)CC(=O)O)C(=O)N[C@@H](CC(=O)c2ccccc2N)C(=O)O[C@@H]1C [Compound 14] yielded an MIC [1] of 8 µg/mL (≈ 4.54 µM), an MIC [2] of 2 µg/mL (≈ 1.14 µM) and an MIC [3] of 8 µg/mL (≈ 4.54 µM). It also gave an MIC [4] of 4 µg/mL (≈ 2.27 µM), an LD50 (toxicity test, LD50) greater than 600 mg/kg and an MIC [5] of 64 µg/mL (≈ 36.3 µM). For the same compound, the “ED50 Values Staphylococcus aureus Subcutaneous” value (Staphylococcus aureus) was greater than 18 mg/kg × 2, the MIC [6] was greater than 128 µg/mL and the MIC [7] was 4 µg/mL (≈ 2.27 µM). The MIC [8] was 8 µg/mL (≈ 4.54 µM), the “ED50 Values Streptococcus pyogenes Oral” value (Streptococcus pyogenes) was greater than 200 mg/kg × 2 and the “ED50 Values Streptococcus pyogenes Subcutaneous” value (Streptococcus pyogenes) was greater than 9 mg/kg × 2. It also gave an MIC [9] of 8 µg/mL (≈ 4.54 µM).

From patent US4396543A
